{"source": "patent US20240245680A1", "about": "“Methods of Treating Retinal Vasculopathies” (Unity Biotechnology, Inc., priority 2021, published 2024)", "key": {"[1]": {"tested_on": "GCN2", "test": "DDIT3 gene expression (qPCR) in GCN2 knockout, PERK knockout and WT cells", "format": "cell-based", "conditions": "GCN2 knockout, 250 nM, five hours, qPCR (FIG. 10D)", "method": "To determine if DDIT3 activation by Compound 39 is dependent on GCN2 activation, rather than PERK, the following experiment was performed. GCN2 knockout cells (CRL-2978™), PERK knockout cells (CRL-2976™), or WT controls cells (ATCC CRL-2977™) were cultured to near confluency and treated for five hours with a fixed concentration (250 nM) of Compound 39. Following treatment, RNA was extracted using the RNeasy® 96-Kit (Qiagen), and cDNA was next generated using Superscript™ IV VILO™ Master Mix (Thermofisher®). qPCR was performed using standard TaqMan reagents and conditions. DDIT3 gene expression was detected using primer Hs00358796_g1 and Tbp was used as a control gene using primer (Hs99999910_m1)."}, "[2]": {"tested_on": "OIR mouse model", "test": "Oxygen-induced retinopathy (OIR) mouse model, retinal flatmounts at P17", "format": "in vivo", "conditions": "OIR pups, two 90 mpk intraperitoneal doses (P12 and P14), read at P17 (FIG. 14A, 15B)", "excerpt": "The OIR model is based on the exposure of mouse pups to hyperoxia during a phase when their retinal vasculature is still developing. This leads to capillary depletion, and upon return to room air, results in retinal ischemia and proliferative vascular disease in the retinal vasculature or oxygen-induced retinopathy.\nC57BL/6J pups at postnatal day 7 (P7) are housed in a hyperoxic chamber (75% O2) for 5 days (n=10 per cage) leading to vessel regression in the center of the retina. CD-1 fostering mothers are rotated before and 2-3 days after entering the chamber. […]\nRetinas are dissected and incubated overnight with rhodamine-labeled lectin from Bandeiraea simplicifolia (Griffonia simplicifolia) (1:100) in 1 mM CaCl2) in PBS to visualize vaso-obliterated (VO) or neovascular (NV) areas. […] Images can be analyzed on Visiopharm® to determine % VO or % NV of total retina. […]\nAvascular areas and areas of neovascularization were quantified after harvest and staining of retinal flatmounts at P17 in the model.\nOIR pups were treated with intraperitoneal injection of 90 mpk Compound 39 at P12, then these pups were removed to room air with their nursing mothers, repeat dosed at P14, and were sacrificed at P17. […] To determine avascular or neovascular areas, retinas were flatmounted, and stained with isolectin B4 (IB4) for fluorescence microscopy. […]"}}, "note": "“Also recorded” adds a separate entry of the source.", "data": [{"smiles": "CNc1nc2ccc(-c3c(C)ccc(C(=O)c4c(-c5ccccc5)n(C)n(-c5ccccc5)c4=O)c3N)cc2s1", "note": "[Compound 39, 4-(2-Amino-4-methyl-3-(2-(methylamino)benzo[d]thiazol-6-yl)benzoyl)-1-methyl-2,5-diphenyl-1H-pyrazol-3(2H)-one]", "values": [{"measurement": "dependence of DDIT3 induction on GCN2 or PERK", "setting": "[1]", "result": "dependent on GCN2 but not PERK"}, {"measurement": "neovascularization", "setting": "[2]", "result": "significant reversal; also recorded: significantly suppressed"}]}]}
